Reference: patent US12220438B2, “Protein based cannabis compositions” (IZUN PHARMACEUTICALS CORP., priority 2019, dated 2025)
Read-outs that look alike come from different tables or passages of the source.

How the values were obtained:
[1] = Attempt to dissolve pure CBD in beverages; format: physicochemical; conditions: 2.7 mg in 25 ml of beverage
Description: Samples of still water (Mei Eden bottled water), carbonated water (made by Tempo Soda), alcoholic lager beer (Carlsberg) and orange juice (made by Primor) were prepared using each of CBD-Whey and Whey only. 25 ml of beverage was prepared for each sample, and 45 mg of CBD-Whey (which contains 2.7 mg of CBD). […] The study continued with comparison of CBD-Whey and Whey only. Volunteers, who were Cannabis naïve, were given 8 samples, in a randomized order and were asked to fill a questionnaire relating to appearance, taste and smell of samples. Evaluations were performed by 6 volunteers for each of the 8 samples (four beverages with CBD-Whey and four beverages with Whey only.)

[2] = THC in plasma, intravenously, 5 mg/kg single dose
[3] = male, Sprague-Dawley, rat, plasma, iv, 5 mg/kg

Row | SMILES | dissolution in beverages [1] | AUC0−∞/D [2] | CL/F [2] | Cmax/D [2] | F (THC, intravenously, 5 mg/kg single dose (reference)) | AUC(0-inf) [3] | AUC(0-t) [3] | Cmax [3] | Tmax [3] | half-life (male, Sprague-Dawley, rat, plasma, iv, 5 mg/kg, t1/2, THC in plasma, intravenously, 5 mg/kg single dose) | half-life (male, Sprague-Dawley, rat, plasma, iv, 5 mg/kg, terminal t1/2, after IV administration, analysis that included the 24 hr time point)
1 | C=C(C)[C@@H]1CCC(C)=C[C@H]1c1c(O)cc(CCCCC)cc1O [CBD, cannabidiol] | crystalline CBD was visible |  |  |  |  |  |  |  |  |  | 
2 | CCCCCc1cc(O)c2c(c1)OC(C)(C)[C@@H]1CCC(C)=C[C@@H]21 [IV, tetrahydrocannabinol] |  | 121 kg·ng·h/mL/mg | 137.2 mL/min/kg | 202 kg·ng/mL/mg | 100% | 607 ng·h/mL | 575 ng·h/mL | 1010 ng/mL | 5 min | 10.8 h | ~10 h
